In patent US20260103485A1, “COMPOUND BASED ON OXIDATIVE STRESS AND ANTI-AMYLOID AGGREGATION MECHANISM, PREPARATION METHOD THEREFOR AND USE THEREOF” (SHENZHEN RAYTONE PHARMACEUTICAL CO., LTD, priority 2022, published 2026):
Entries after “also recorded” stand apart in the source; their conditions may differ.

Legend:
[1] = tested on: sodium selenite-induced New Zealand rabbit cataract model; test: Pharmacodynamic study on sodium selenite-induced New Zealand rabbit cataract model (slit lamp lens opacity grading); assay type: in vivo; conditions: 1.5% (w/w) eye drops; for Number of lenses with lens opacity grade II: Grade II: slightly increased density of lens nucleus; for Number of lenses with lens opacity grade III: Grade III: translucent lens nucleus; for Number of lenses with lens opacity grade IV: Grade IV: opacity of lens nucleus not involving cortex; for Effect compared with the core fragment compound c (Gc) group / Effect compared with the core fragment compound d (Gd) group / Effect compared with the model group (MG): chi-square test, p<0.05; for Therapeutic effect on the sodium selenite-induced cataract model: conclusion; for Number of lenses with lens opacity grade I: Grade I: vacuoles in periphery or anterior cortex of lens
Description: Neonatal New Zealand rabbits were P7 days old in ordinary grade, and 5 baby rabbits per litter were breastfed with one mother rabbit.
The young rabbits were randomly divided into 6 groups with 5 rabbits in each group. • 1) Normal control group (CG): Normal feeding. • 2) Disease model group (MG): At day P10, young rabbits were injected subcutaneously with sodium selenite solution (in normal saline) at 20 μmol/kg body weight. After day P15, normal saline eye drops were dripped into the left eye 3 times a day for 30 consecutive days. • 3) Compound 1 group (group 1, G1): At day P10, young rabbits were injected subcutaneously with sodium selenite solution (in normal saline) at 20 μmol/kg body weight. After day P15, 1.5% (w/w) compound 1 eye drops were dripped into the left eye 3 times a day for 30 consecutive days. • 4) Compound 2 group (group 2, G2): At day P10, young rabbits were injected subcutaneously with sodium selenite solution (in normal saline) at 20 μmol/kg body weight of. After day P15, 1.5% (w/w) compound 2 eye drops were dripped into the left eye 3 times a day for 30 consecutive days. • 5) Compound c group (group c, Gc): At day P10, young rabbits were injected subcutaneously with sodium selenite solution (in normal saline) at 20 μmol/kg body weight. After day P15, 1.5% (w/w) compound c eye drops were dripped into the left eye 3 times a day for 30 consecutive days. • 6) 3,3′-dithiodipropionic acid group (group d, Gd): At day P10, young rabbits were injected subcutaneously with sodium selenite solution (in normal saline) at 20 μmol/kg body weight. After day P15, 1.5% (w/w) 3,3′-dithiodipropionic acid eye drops were dripped into the left eye 3 times a day for 30 consecutive days.
Slit lamp observation: Slit lamp observation was performed on each group of sodium selenite-induced neonatal New Zealand rabbits before the administration, and 7 days, 14 days, and 30 days after the administration respectively, and the degree of lens opacity was graded to determine the therapeutic effect. Lens opacity grading standard [Hiraoka T, Clark J I. Inhibition of lens opacification during the early stages of cataract formation[J].

[2] = tested on: mice presbyopia model; test: Pharmacodynamic study on mice presbyopia model (lens thickness deformation under fixed pressure); assay type: in vivo, Mice (C57BL/6J); conditions: 1.5% (w/w) eye drops; for Lens thickness (deformation): 8 months old C57BL/6J mice, left eye, 3 times a day, 45 consecutive days, micrometer screw after fixed pressure, 5 lenses; for Therapeutic effect on elastic recovery of aged mice: conclusion, 45 days
Source text: Mice (8 months old, C57BL/6J), normal grade.
The mice were randomly divided into 4 groups with 5 mice in each group. • 1) Model group (MG): normal saline eye drops were dripped into the left eye for 45 consecutive days, 3 times a day. • 2) Compound 1 Group (group 1, G1): 1.5% (w/w) compound 1 eye drops were dripped into the left eye for 45 consecutive days, 3 times a day. • 3) Compound 2 Group (group 2, G2): 1.5% (w/w) compound 2 eye drops were dripped into the left eye for 45 consecutive days, 3 times a day. • 4) 3,3′-dithiodipropionic acid group (group d, Gd): 1.5% (w/w) 3,3′-dithiodipropionic acid eye drops were dripped into the left eye for 45 consecutive days, 3 times a day.
Measurement of lens thickness deformation: After 45 consecutive days of eye dripping, mice were euthanized with carbon dioxide and flushed with saline. Lens thickness was measured using a micrometer screw after applying a fixed pressure.

[3] = of 5 lenses, left eye, 3 times a day, 30 consecutive days

Compound | Number of lenses with lens opacity grade II [1, 3] | Number of lenses with lens opacity grade III [1, 3] | Number of lenses with lens opacity grade IV [1, 3] | Number of lenses with lens opacity grade V ([1]; of 5 lenses, left eye, 3 times a day, 30 consecutive days, Grade V: opacity of lens nucleus and perinuclear cortex) | Number of lenses with lens opacity grade VI ([1]; of 5 lenses, left eye, 3 times a day, 30 consecutive days, Grade VI: complete opacity of lens) | Lens thickness (deformation) [2] | Effect compared with the core fragment compound c (Gc) group [1] | Effect compared with the core fragment compound d (Gd) group [1] | Effect compared with the model group (MG) [1] | Therapeutic effect on the sodium selenite-induced cataract model [1] | Number of lenses with lens opacity grade I [1, 3] | Therapeutic effect on elastic recovery of aged mice [2] | Therapeutic effect on elastic recovery of aged mice ([2]; listed as G1)
C[C@H](CCCC(C)(C)O)[C@H]1CC[C@@]2(C)C3=C(CC[C@]12C)[C@@]1(C)CC[C@H](O)C(C)(C)[C@@H]1CC3 [Compound c, reference compound] | 2 | 3 | – | – | – | – | – | – | – | – | – | – | –
O=C(O)CCSSCCC(=O)O [3,3′-dithiodipropionic acid, reference compound] | – | 1 | 2 | 1 | 1 | 1.55 ± 0.01 | – | – | – | – | – | – | –
C[C@H](CCCC(C)(C)OC(=O)CCSSCCC(=O)O)[C@H]1CC[C@@]2(C)C3=C(CC[C@]12C)[C@@]1(C)CC[C@H](OC(=O)CCSSCCC(=O)O)C(C)(C)[C@@H]1CC3 [Compound 2] | 1 | 1 | – | – | – | 1.51 ± 0.02 | significantly superior | significantly superior | significantly superior | significant therapeutic effects; also recorded: best therapeutic effect | 3 | significant therapeutic effects | –
C[C@H](CCCC(C)(C)O)C1CC[C@@]2(C)C3=C(CC[C@]12C)[C@@]1(C)CC[C@H](OC(=O)CCSSCCC(=O)O)C(C)(C)[C@@H]1CC3 (stereo partly drawn) [Compound 1] | 2 | 1 | 1 | – | – | 1.42 ± 0.03 | significantly superior | significantly superior | significantly superior | significant therapeutic effects | 1 | significant therapeutic effects | most significant effect
